Results: BindingDB's records for doi:10.1016/s0960-894x(03)00407-4 (Guilford Pharmaceuticals, 2003)

Test: Concentration required for the neuroprotective effect determined by inhibition of GCP II

Row | SMILES | EC50 [nM]
1 | O=C(O)CCC(CP(=O)(O)Cc1c(F)c(F)c(F)c(F)c1F)C(=O)O (racemic) | 9.5
2 | O=C(O)CCC(CCCC(=O)NO)C(=O)O (stereo not drawn) [2-(3-Hydroxycarbamoyl-propyl)-pentanedioic acid] | 1100
3 | O=C(O)CCC(CC(=O)NO)C(=O)O (stereo not drawn) [2-[(hydroxycarbamoyl)methyl]pentanedioic acid] | 220
